Where a name gives a salt, the structure may show the parent alone.
Tests used:
[1] = target: T1, fusion protein containing GAL4-DNA-binding domain and ERR full-length (Homo sapiens, UniProt P11474); assay: Reporter assay system using 293T cells (GAL4-ERR luciferase, inverse agonist activity); format: cell-based; settings: HEK-293T, compound final concentration 3 μM, no compound = 0%, 10 μM XCT-790 = 100%, read-out: inhibition rate (%) at 3 μM
T1 construct: expressed in transfected cells; host or cells: 293T cells
T1 sequence (P11474 1-423): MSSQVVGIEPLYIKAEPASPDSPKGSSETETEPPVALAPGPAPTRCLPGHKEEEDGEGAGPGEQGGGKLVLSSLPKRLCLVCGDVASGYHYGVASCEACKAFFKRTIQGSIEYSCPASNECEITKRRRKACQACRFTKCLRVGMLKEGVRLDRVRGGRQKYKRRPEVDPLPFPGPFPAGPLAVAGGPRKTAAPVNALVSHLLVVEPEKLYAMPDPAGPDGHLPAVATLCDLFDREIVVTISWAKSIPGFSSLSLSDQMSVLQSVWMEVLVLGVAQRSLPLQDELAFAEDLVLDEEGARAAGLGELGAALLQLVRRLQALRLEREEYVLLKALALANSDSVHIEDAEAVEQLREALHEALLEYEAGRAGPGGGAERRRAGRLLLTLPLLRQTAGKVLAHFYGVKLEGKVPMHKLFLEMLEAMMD
Procedure: Experimental Example 2 Compound Evaluation in Reporter Assay System Using 293T Cells
293T cells derived from human kidney were seeded in a 150 cm^2 flask by 6,000,000 cells, and cultured in a medium (DMEM medium containing 10% inactivated Fetal Bovine Serum sterile filtered (FBS), […] Gentamicin, 10 mM HEPES buffer (pH 7.4)) at 37° C. in the presence of 5% CO2 for 1 day.
Then, vector DNA having a gene encoding a fusion protein, containing GAL4-DNA-binding domain and ERR full-length and a vector DNA wherein luciferase gene is fused at the downstream of GAL4-binding-sequence were cotransfected by a lipofection method, and the cells were cultured at 37° C. in the presence of 5% CO2 for 1 day. The cells were recovered, sown in a 384 well plate by 15,000 cells, and cultured at 37° C. in the presence of 5% CO2 for 3 hrs. Furthermore, 50 μM N-[5-(trifluoromethyl)-1,3,4-thiadiazol-2-yl]-2-cyano-3-[3-methoxy-4-[2,4-di(trifluoromethyl)benzyloxy]phenyl]propenamide (XCT-790) (final concentration 10 μM) or 15 μM compound (final concentration 3 μM) was added, and the cells were cultured at 37° C. in the presence of 5% CO2 for 1 day. The luciferase activity was measured by using multiplate reader Envision (Perkin Elmer Inc.). The inverse agonist activity of the compound was calculated in percentage with the luciferase activity inhibited by no addition of compound as 0%, and with addition of final concentration 10 μM of XCT-790 as 100%.

[2] = target: T2, GST-ERR-α ligand-binding domain (Homo sapiens, UniProt P11474); assay: HTRF assay system using ERR-α ligand-binding domain (inverse agonist activity, biotinylated SRC-1 (676-700) peptide); format: biochemical; settings: compound final concentration 30 μM; 665/620 ratio; no compound = 0%, 10 μM XCT-790 = 100%; read-out: inhibition rate (%) at 30 μM
T2 sequence (P11474 193-421 limits assumed): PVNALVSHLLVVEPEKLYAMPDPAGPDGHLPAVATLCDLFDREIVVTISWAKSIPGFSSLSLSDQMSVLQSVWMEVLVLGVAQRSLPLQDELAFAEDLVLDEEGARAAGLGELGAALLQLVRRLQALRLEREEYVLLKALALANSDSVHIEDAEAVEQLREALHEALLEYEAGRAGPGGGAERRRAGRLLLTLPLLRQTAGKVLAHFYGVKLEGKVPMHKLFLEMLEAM
Procedure: Experimental Example 1 Compound Evaluation in HTRF Assay System Using ERR-α Ligand-Binding Domain
An assay buffer (25 mM HEPES, 100 mM NaCl, 1 mM DTT, 0.1% BSA) containing 5 nM GST-ERR-α ligand-binding domain (final concentration 1.25 nM) was added to a 384 well plate, then 40 μM N-[5-(trifluoromethyl)-1,3,4-thiadiazol-2-yl]-2-cyano-3-[3-methoxy-4-[2,4-di(trifluoromethyl)benzyloxy]phenyl]propenamide (XCT-790) (final concentration 10 μM), or 120 μM compound (final concentration 30 μM) was added. Furthermore, an assay buffer containing XL665 conjugated Streptavidin, Eu^3+ criptate conjugated GST antibody and 200 nM biotinylated SRC-1 (676-700) (final concentration 100 nM) was added, and the mixture was reacted at room temperature for 2 hr. Using Multiplate reader Envision (Perkin Elmer Inc.), after excitation at 320 nm, fluorescence values at 620 nm and 665 nm were measured. The inverse agonist activity of the compound was calculated in percentage with the 665/620 ratio value inhibited by no addition of compound as 0%, and with addition of final concentration 10 μM of XCT-790 as 100%.

| SMILES | inhibition at 3 µM [1] | inhibition at 30 µM [2] |
| --- | --- | --- |
| O=C1N=C(NC2CCOC2)/C(=C/C2CCN(Cc3ccc(C(F)(F)F)cc3C(F)(F)F)CC2)S1 (centres unmarked) [Example 43, (5Z)-5-({1-[2,4-bis(trifluoromethyl)benzyl]piperidin-4-yl}methylidene)-4-(tetrahydrofuran-3-ylamino)-1,3-thiazol-2(5H)-one 0.5 fumarate] | 87% | 106% |
| COCCOCCNC1=NC(=O)S/C1=C\C1CCN(Cc2ccc(C(F)(F)F)cc2C(F)(F)F)CC1 [Example 39, (5Z)-5-({1-[2,4-bis(trifluoromethyl)benzyl]piperidin-4-yl}methylidene)-4-{[2-(2-methoxyethoxy)ethyl]amino}-1,3-thiazol-2(5H)-one] | 85% | 106% |
| C#CCNC1=NC(=O)S/C1=C\C1CCN(Cc2ccc(C(F)(F)F)cc2C(F)(F)F)C1 (centres unmarked) [Example 69, (5Z)-5-({1-[2,4-bis(trifluoromethyl)benzyl]pyrrolidin-3-yl}methylidene)-4-(prop-2-yn-1-ylamino)-1,3-thiazol-2(5H)-one maleate] | 87% | 67% |
| CC(C)(CO)CNC1=NC(=O)S/C1=C\C1CCN(Cc2ccc(C(F)(F)F)cc2C(F)(F)F)CC1 [Example 77, (5Z)-5-({1-[2,4-bis(trifluoromethyl)benzyl]piperidin-4-yl}methylidene)-4-[(3-hydroxy-2,2-dimethylpropyl)amino]-1,3-thiazol-2(5H)-one] | 82% | 109% |
| CCNC1=NC(=O)S/C1=C\C1CCN(Cc2ccc(C(F)(F)F)cc2C(F)(F)F)CC1 [Example 199, (5Z)-5-({1-[2,4-bis(trifluoromethyl)benzyl]piperidin-4-yl}methylidene)-4-(ethylamino)-1,3-thiazol-2(5H)-one] | 84% | 101% |
| CN(C)C(=O)[C@H](CO)NC1=NC(=O)S/C1=C\C1CCN(Cc2ccc(C(F)(F)F)cc2C(F)(F)F)CC1 [Example 132, N^2-[(5Z)-5-({1-[2,4-bis(trifluoromethyl)benzyl]piperidin-4-yl}methylidene)-2-oxo-2,5-dihydro-1,3-thiazol-4-yl]-N,N-dimethyl-L-serinamide] | 78% | 102% |
| C#CCNC1=NC(=O)S/C1=C\C1CCN(Cc2ccc(Cl)cc2C(F)(F)F)CC1 [Example 24, (5Z)-5-({1-[4-chloro-2-(trifluoromethyl)benzyl]piperidin-4-yl}methylidene)-4-(prop-2-yn-1-ylamino)-1,3-thiazol-2(5H)-one fumarate] | 92% | 105% |
| CN(CCO)CCNC1=NC(=O)S/C1=C\C1CCN(Cc2ccc(C(F)(F)F)cc2C(F)(F)F)CC1 [Example 58, (5Z)-5-({1-[2,4-bis(trifluoromethyl)benzyl]piperidin-4-yl}methylidene)-4-({2-[(2-hydroxyethyl)(methyl)amino]ethyl}amino)-1,3-thiazol-2(5H)-one ½fumarate] | 91% | 110% |
| CCN(CC)CCNC1=NC(=O)S/C1=C\C1CCN(Cc2ccc(C(F)(F)F)cc2C(F)(F)F)CC1 [Example 9, (5Z)-5-({1-[2,4-bis(trifluoromethyl)benzyl]piperidin-4-yl}methylidene)-4-{[2-(diethylamino)ethyl]amino}-1,3-thiazol-2(5H)-one dihydrochloride] | 88% | 107% |
| O=C1N=C(NCC2CC2)/C(=C/C2CCN(Cc3ccc(C(F)(F)F)cc3C(F)(F)F)CC2)S1 [Example 61, (5Z)-5-({1-[2,4-bis(trifluoromethyl)benzyl]piperidin-4-yl}methylidene)-4-[(cyclopropylmethyl)amino]-1,3-thiazol-2(5H)-one fumarate] | 90% | 95% |
| C#CCNC1=NC(=O)S/C1=C\C1CCN(Cc2ccc(C(F)(F)F)cc2C(F)(F)F)CC1 [Example 16, (5Z)-5-({1-[2,4-bis(trifluoromethyl)benzyl]piperidin-4-yl}methylidene)-4-(prop-2-yn-1-ylamino)-1,3-thiazol-2(5H)-one hydrochloride] | 89% | 112% |
| CC(C)(O)C#CCNC1=NC(=O)S/C1=C\C1CCN(Cc2ccc(C(F)(F)F)cc2C(F)(F)F)CC1 [Example 87, (5Z)-5-({1-[2,4-bis(trifluoromethyl)benzyl]piperidin-4-yl}methylidene)-4-[(4-hydroxy-4-methylpent-2-yn-1-yl)amino]-1,3-thiazol-2(5H)-one] | 88% | – |
| CNC1=NC(=O)S/C1=C\C1CCN(Cc2ccc(C(F)(F)F)cc2C(F)(F)F)CC1 [Example 37, (5Z)-5-({1-[2,4-bis(trifluoromethyl)benzyl]piperidin-4-yl}methylidene)-4-(methylamino)-1,3-thiazol-2(5H)-one fumarate] | – | 109% |
| CNC1=NC(=O)S/C1=C\[C@@H]1C[C@H]2CC[C@@H](C1)N2Cc1ccc(C(F)(F)F)cc1C(F)(F)F [Example 15, (5Z)-5-({(3-exo)-8-[2,4-bis(trifluoromethyl)benzyl]-8-azabicyclo[3.2.1]oct-3-yl}methylidene)-4-(methylamino)-1,3-thiazol-2(5H)-one] | 88% | 102% |
| C#CCNC1=NC(=O)S/C1=C\C1CCN(Cc2ccc(C#N)cc2C(F)(F)F)CC1 [Example 40, 4-[(4-{(Z)-[2-oxo-4-(prop-2-yn-1-ylamino)-1,3-thiazol-5(2H)-ylidene]methyl}piperidin-1-yl)methyl]-3-(trifluoromethyl)benzonitrile] | 62% | 73% |
| O=C1N=C(NC2COC2)/C(=C/C2CCN(Cc3ccc(C(F)(F)F)cc3C(F)(F)F)CC2)S1 [Example 20, (5Z)-5-({1-[2,4-bis(trifluoromethyl)benzyl]piperidin-4-yl}methylidene)-4-(oxetan-3-ylamino)-1,3-thiazol-2(5H)-one] | 95% | 105% |
| CNC1=NC(=O)N(C)/C1=C\C1CCN(Cc2ccc(C(F)(F)F)cc2C(F)(F)F)CC1 [Example 80, (5Z)-5-({1-[2,4-bis(trifluoromethyl)benzyl]piperidin-4-yl}methylidene)-1-methyl-4-(methylamino)-1,5-dihydro-2H-imidazol-2-one] | 86% | 105% |
| O=C1N=C(NCC(O)CO)/C(=C/C2CCN(Cc3ccc(C(F)(F)F)cc3C(F)(F)F)CC2)S1 (centres unmarked) [Example 56, (5Z)-5-({1-[2,4-bis(trifluoromethyl)benzyl]piperidin-4-yl}methylidene)-4-[(2,3-dihydroxypropyl)amino]-1,3-thiazol-2(5H)-one] | 91% | 106% |
| CNC1=NC(=O)S/C1=C\C1CCN(Cc2ccc(C(F)(F)F)cc2C(F)(F)F)CC1 [Example 3, (5Z)-5-({1-[2,4-bis(trifluoromethyl)benzyl]piperidin-4-yl}methylidene)-4-(methylamino)-1,3-thiazol-2(5H)-one] | 88% | – |

Source: patent US8772277B2, “Nitrogen-containing heterocyclic compound” (Takeda Pharmaceutical Company Limited, priority 2011, dated 2014)
